Assay results taken from ChEMBL document CHEMBL1142427, “Cytotoxic triterpenoid saponins acylated with monoterpenic acid from Pithecellobium lucidum” (J Nat Prod, 2008).

How the values were obtained:
[1] = test system: Bel-7402; test: Cytotoxicity against human Bel7402 cells after 96 hrs by MTT assay; type: functional, cell-based; conditions: Bel-7402, 96 h
[2] = test system: BGC-823; test: Cytotoxicity against human BGC823 cells after 96 hrs by MTT assay; type: functional, cell-based; conditions: BGC-823, 96 h
[3] = test system: HCT-8; test: Cytotoxicity against human HCT8 cells after 96 hrs by MTT assay; type: functional, cell-based; conditions: HCT-8, 96 h
[4] = test system: A549; test: Cytotoxicity against human A549 cells after 96 hrs by MTT assay; type: functional, cell-based; conditions: A549, 96 h
[5] = test system: A2780; test: Cytotoxicity against human A2780 cells after 96 hrs by MTT assay; type: functional, cell-based; conditions: A2780, 96 h
[6] = Toxicity in rabbit erythrocytes assessed as hemolysis at 0.01 uM to 100 uM; type: cell-based, Oryctolagus cuniculus; conditions: erythrocyte

SMILES	IC50 [1]	IC50 [2]	IC50 [3]	IC50 [4]	IC50 [5]	Activity [6]
C=C[C@@](C)(CC/C=C(\CO)C(=O)O[C@H]1C[C@]2(C(=O)O[C@@H]3O[C@H](CO)[C@@H](O)[C@H](O)[C@H]3O[C@@H]3O[C@@H](C)[C@H](O[C@@H]4O[C@@H](CO)[C@H](O)[C@H]4O)[C@@H](O[C@@H]4O[C@H](CO)[C@@H](O)[C@H](O)[C@H]4O)[C@H]3O)[C@H](O)C[C@]3(C)C(=CC[C@@H]4[C@@]5(C)CC[C@H](O[C@@H]6O[C@H](CO[C@@H]7O[C@H](C)[C@H](O)[C@H](O)[C@H]7O[C@@H]7OC[C@@H](O)[C@H](O)[C@H]7O)[C@@H](O)[C@H](O)[C@H]6NC(C)=O)C(C)(C)[C@@H]5CC[C@]43C)[C@@H]2CC1(C)C)O[C@@H]1O[C@H](C)[C@@H](O)[C@H](O)[C@H]1O [JULIBROSIDE J29]	1.65 µM	1.9 µM	1.5 µM	1.8 µM	0.61 µM	Non-toxic
C=C[C@@](C)(CC/C=C(\CO)C(=O)O[C@H]1C[C@]2(C(=O)O[C@@H]3O[C@H](CO)[C@@H](O)[C@H](O)[C@H]3O[C@@H]3O[C@@H](C)[C@H](O[C@@H]4O[C@@H](CO)[C@H](O)[C@H]4O)[C@@H](O[C@@H]4O[C@H](CO)[C@@H](O)[C@H](O)[C@H]4O)[C@H]3O)[C@H](O)C[C@]3(C)C(=CC[C@@H]4[C@@]5(C)CC[C@H](O[C@@H]6O[C@H](CO[C@@H]7O[C@H](C)[C@H](O)[C@H](O)[C@H]7O[C@@H]7OC[C@@H](O)[C@H](O)[C@H]7O)[C@@H](O)[C@H](O)[C@H]6O)C(C)(C)[C@@H]5CC[C@]43C)[C@@H]2CC1(C)C)O[C@@H]1O[C@H](C)[C@@H](O)[C@H](O)[C@H]1O	> 10 µM	> 10 µM	1.5 µM	> 10 µM	1.35 µM	Non-toxic
CC[C@@]1(O)C(=O)OCc2c1cc1n(c2=O)Cc2cc3ccccc3nc2-1 [CAMPTOTHECIN]	12.5 µM	9.67 µM	3.15 µM	3.12 µM	0.28 µM	–
C=C[C@@](C)(CC/C=C(\CO)C(=O)O[C@H]1C[C@]2(C(=O)O[C@@H]3O[C@H](CO)[C@@H](O)[C@H](O)[C@H]3O[C@@H]3O[C@@H](C)[C@H](O[C@@H]4O[C@@H](CO)[C@H](O)[C@H]4O)[C@@H](O[C@@H]4O[C@H](C)[C@@H](O)[C@H](O)[C@H]4O)[C@H]3O)[C@H](O)C[C@]3(C)C(=CC[C@@H]4[C@@]5(C)CC[C@H](O[C@@H]6O[C@H](CO[C@@H]7O[C@H](C)[C@H](O)[C@H](O)[C@H]7O[C@@H]7OC[C@@H](O)[C@H](O)[C@H]7O)[C@@H](O)[C@H](O)[C@H]6O)C(C)(C)[C@@H]5CC[C@]43C)[C@@H]2CC1(C)C)O[C@@H]1O[C@H](C)[C@@H](O)[C@H](O)[C@H]1O [PITHELUCOSIDE A]	> 10 µM	> 10 µM	> 10 µM	> 10 µM	> 10 µM	Non-toxic
C/C(=C\CO)CC/C=C(\CO)C(=O)O[C@H]1C[C@]2(C(=O)O[C@@H]3O[C@H](CO)[C@@H](O)[C@H](O)[C@H]3O[C@@H]3O[C@@H](C)[C@H](O[C@@H]4O[C@@H](CO)[C@H](O)[C@H]4O)[C@@H](O[C@@H]4O[C@H](CO)[C@@H](O)[C@H](O)[C@H]4O)[C@H]3O)[C@H](O)C[C@]3(C)C(=CC[C@@H]4[C@@]5(C)CC[C@H](O[C@@H]6O[C@H](CO[C@@H]7O[C@H](C)[C@H](O)[C@H](O)[C@H]7O[C@@H]7OC[C@@H](O)[C@H](O)[C@H]7O)[C@@H](O)[C@H](O)[C@H]6O)C(C)(C)[C@@H]5CC[C@]43C)[C@@H]2CC1(C)C [PITHELUCOSIDE C]	7.56 µM	> 10 µM	4.24 µM	> 10 µM	1.66 µM	Non-toxic
C[C@H]1O[C@@H](OC[C@H]2O[C@@H](O[C@H]3CC[C@]4(C)[C@H]5CC=C6[C@@H]7CC(C)(C)[C@@H](O)C[C@]7(C(=O)O)[C@H](O)C[C@@]6(C)[C@]5(C)CC[C@H]4C3(C)C)[C@H](O)[C@@H](O)[C@@H]2O)[C@H](O[C@@H]2OC[C@@H](O)[C@H](O)[C@H]2O)[C@@H](O)[C@H]1O	> 10 µM	> 10 µM	> 10 µM	> 10 µM	> 10 µM	Non-toxic
C=C[C@](C)(O)CC/C=C(\CO)C(=O)O[C@H]1C[C@]2(C(=O)O[C@@H]3O[C@H](CO)[C@@H](O)[C@H](O)[C@H]3O[C@@H]3O[C@@H](C)[C@H](O[C@@H]4O[C@@H](CO)[C@H](O)[C@H]4O)[C@@H](O[C@@H]4O[C@H](CO)[C@@H](O)[C@H](O)[C@H]4O)[C@H]3O)[C@H](O)C[C@]3(C)C(=CC[C@@H]4[C@@]5(C)CC[C@H](O[C@@H]6O[C@H](CO[C@@H]7O[C@H](C)[C@H](O)[C@H](O)[C@H]7O[C@@H]7OC[C@@H](O)[C@H](O)[C@H]7O)[C@@H](O)[C@H](O)[C@H]6O)C(C)(C)[C@@H]5CC[C@]43C)[C@@H]2CC1(C)C [PITHELUCOSIDE B]	2.54 µM	> 10 µM	> 10 µM	> 10 µM	1.23 µM	Non-toxic
